Assay results from patent US12161641B2, “Treatments and prevention of opioid neonatal abstinence syndrome” (Ohio State Innovation Foundation, priority 2016, dated 2024).

Legend:
[1] = Drug levels in plasma, brain and liver during postnatal development; conditions: for Plasma levels: 45 minutes after single injection; for Brain / Liver / Plasma: single injection
Method: Drugs were dissolved in saline at concentrations between 10 and 20 mg/ml, and all dilutions were made in saline. Morphine was purchased from the Ohio State Medical Center pharmacy as a 15 mg/ml solution in saline. Animals were injected subcutaneously in the region around the right hind-quarters. […] After injection and variable survival times adult and pregnant mice were euthanized by cervical dislocation, and brain, liver and plasma were collected, quickly frozen on dry-ice and stored at −70° C. until processing After euthanizing the dam, embryos were collected into a large (150×15 mm) petri dish and kept on ice while maternal tissues were processed. All embryonic tissues were then dissected and collected in a cold room at 4° C. in order to facilitate and preserve tissue integrity during dissection, then stored at −70° C. […] Samples were later thawed, processed and analyzed via liquid chromatography-tandem mass spectrometry (LC-MS/MS) to quantify levels of drug. Detailed methods for tissue processing and LC-MS/MS analysis are located in the supplemental information.

[2] = Weight gain during 6 day morphine dosing schedule; format: in vivo, mice; conditions: increasing concomitant doses with morphine; 6 day dosing schedule
Method: Total jumps were counted over a period of 15 minutes starting immediately after the injection of naloxone to induce withdrawal. Two concentration ramping procedure were used for the morphine injections with commensurate ramping of 6β-naltrexol. Data are plotted using the lower of the two drug concentrations. Asterisks indicate a significant difference compared to morphine treated animals with no 6β-naltrexol; *p<0.05; **p<0.01. […] Bidirectional arrows indicate the time bin for each 6β-naltrexol dose where an equal number of jumps occur prior to and after that time bin. Note that this timepoint increases with increasing 6β-naltrexol. Asterisk indicates a significant effect of the 1/3000, 1/1000, and 1/200 doses of 6β-naltrexol compared to morphine-alone in the first three time bins. […] The mass of each mouse was determined before and after the 6 day morphine dosing schedule and the percent weight change was determined. Asterisk indicates significant difference from animals that received morphine but no (“0”) 6β-naltrexol (p<0.05). In FIG. 3A, the number in parentheses indicates the number of animals tested at each drug concentration. […]
Animals were injected with morphine alone or morphine mixed with increasing amounts of 6β-naltrexol. […] Withdrawal jumping was videotaped and jumps were scored in a 15 minute interval. […]

SMILES: Oc1ccc2c3c1O[C@H]1[C@H](O)CC[C@@]4(O)[C@@H](C2)N(CC2CC2)CC[C@]314 [6β-naltrexol]
- Plasma levels ([1]; PD7): 3660+350 ng/ml
- Brain:Plasma Kp ratio ([1]; PD7, survival time 45 min): 0.86
- Liver:Plasma Kp ratio ([1]; PD7, survival time 45 min): 4.3
- Brain ([1]; PD7, survival time 45 min): 3030 ± 340 ng/g
- Liver ([1]; PD7, survival time 45 min): 15220 ± 1750 ng/g
- Plasma ([1]; PD7, survival time 45 min): 3513 ng/mL
- Brain:Plasma Kp ratio ([1]; PD14, survival time 45 min): 2
- Liver:Plasma Kp ratio ([1]; PD14, survival time 45 min): 3.6
- Brain ([1]; PD14, survival time 45 min): 2860 ± 800 ng/g
- Liver ([1]; PD14, survival time 45 min): 5050 ± 1260 ng/g
- Plasma ([1]; PD14, survival time 45 min): 1410 ± 370 ng/mL
- Brain:Plasma Kp ratio ([1]; PD20, survival time 20 min): 0.33
- Liver:Plasma Kp ratio ([1]; PD20, survival time 20 min): 1.7
- Brain ([1]; PD20, survival time 20 min): 350 ± 20 ng/g
- Liver ([1]; PD20, survival time 20 min): 1830 ± 70 ng/g
- Plasma ([1]; PD20, survival time 20 min): 1070 ± 100 ng/mL
- brain:plasma KP ratios ([1]; PD20 and older): 0.22-0.35
- Plasma levels ([1]; PD32): 170+30 ng/ml
- Brain:Plasma Kp ratio ([1]; PD32, survival time 20 min): 0.22
- Liver:Plasma Kp ratio ([1]; PD32, survival time 20 min): 1.3
- Brain ([1]; PD32, survival time 20 min): 260 ± 80 ng/g
- Liver ([1]; PD32, survival time 20 min): 1510 ± 640 ng/g
- Plasma ([1]; PD32, survival time 20 min): 1160 ± 730 ng/mL
- Brain:Plasma Kp ratio ([1]; PD50, survival time 45 min): 0.35
- Liver:Plasma Kp ratio ([1]; PD50, survival time 45 min): 1.9
- Brain ([1]; PD50, survival time 45 min): 150 ± 10 ng/g
- Liver ([1]; PD50, survival time 45 min): 820 ± 80 ng/g
- Plasma ([1]; PD50, survival time 45 min): 430 ± 40 ng/mL
- Plasma levels ([1]; adults): 930+220 ng/ml
- liver:plasma KP ratios ([1]; all ages): 1.3-4.2
- effect on inhibition of weight gain by morphine [2]: alleviated
